Laboratory results reported in patent publication US20060069132A1, “Azolecarboxamide herbicides” (priority 2004, published 2006).
Read-outs that look alike come from different tables or passages of the source.

What was measured:
Italian ryegrass [1] = experiment: Test E pre-/postemergence herbicide test; assay type: in vivo, Lolium multiflorum
Description: Seeds of plant species selected from bipinnate beggarticks (Bidens bipinnata L.), hairy beggarticks (Bidens radiata Thuill.), bermudagrass (Cynodon dactylon (L.) Pers.), Surinam grass (Urochloa decumbens (Staph) R. D. Webster, previously named Brachiaria decumbens Stapf), large crabgrass (Digitaria sanguinalis (L.) Scop.), green foxtail (Setaria viridis (L.) P. Beauv.), goosegrass (Eleusine indica (L.) Gaertn.), johnsongrass (Sorghum halepense (L.) Pers.), kochia (Kochia scoparia (L.) Schrad.), pitted morningglory (Ipomoea lacunosa L.), purple nutsedge (Cyperus rotundus L.), common ragweed (Ambrosia elatior L.), mustard (Brassica nigra (L.) W. D. J. Koch), guineagrass (Panicum maximum Jacq.), dallisgrass (Paspalum dilatatum Poir.), barnyardgrass (Echinochloa crus-galli (L). P. Beauv.), southern sandbur (Cenchrus echinatus L.), common sowthistle (Sonchus oleraceous L.), prickly sida (Sida spinosa L.), Italian ryegrass (Lolium multiflorum Lam.), common purslane (Portulaca oleracea L.), broadleaf signalgrass (Brachiaria platyphylla (Griseb.) Nash), common groundsel (Senecio vulgaris L.), common chickweed (Stellaria media (L.) Vill/Cyr.), tropical spiderwort (Commelina benghalensis L.), annual bluegrass (Poa annua L.), downy bromegrass (Bromus tectorum L.), itchgrass (Rottboellia cochinchinensis (L.) L.f.), quackgrass (Elytrigia repens (L.) Nevski), Canada horseweed (Erigeron Canadensis L.), field bindweed (Convolvulus arvensis L.), spotted spurge (Euphorbia maculata L.), common mallow (Malva sylvestris (=s silvestris) L.), and Russian thistle (Salsola kali L. ssp. Ruthenica (Iljin) Soo) were planted and treated preemergence with test chemicals formulated in a non-phytotoxic solvent mixture which included a surfactant.
At the same time, plants selected from these weed species were treated with postemergence applications of some of the test chemicals formulated in the same manner. Plants ranged in height from 2 to 18 cm (1- to 4-leaf stage) for postemergence treatments. Treated plants and controls were maintained in a greenhouse for 12 to 14 days, after which time all species were compared to controls and visually evaluated. Plant response ratings, summarized in Table E, are based on a scale of 0 to 100 where 0 is no effect and 100 is complete control. A dash (-) response means no test result.

large crabgrass = experiment: Test A pre-/postemergence herbicide test; assay type: in vivo, Digitaria sanguinalis; settings: for pest or weed control at 500 g/ha / pest or weed control at 2000 g/ha: Digitaria sanguinalis, 240 h
Outline: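 Visual injury scores on a 0–100 scale (100 = complete control) taken about ten days post-treatment in greenhouse against untreated controls; dash means no result. Treatments: preemergence soil spray and postemergence spray to runoff on one- to two-leaf plants 2 to 10 cm tall, surfactant-containing formulation.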

green foxtail = experiment: Test C postemergence herbicide test; assay type: in vivo, Setaria viridis
Outline: (§1)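 Visual rating, 0 (no effect) to 100 (complete control), vs. controls at 12–14 d in greenhouse. Postemergence: 1–4-leaf plants, 2–18 cm. Paddy: flooded, barnyardgrass at 2-leaf stage.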

wild oat = experiment: Test C postemergence herbicide test; assay type: in vivo, Avenafatua
Outline: as §1

chickweed = experiment: Test C postemergence herbicide test; assay type: in vivo, Stellaria media
Outline: as §1

wheat = experiment: Test C postemergence herbicide test; assay type: in vivo, Triticum aestivum
Outline: as §1

blackgrass = experiment: Test C postemergence herbicide test; assay type: in vivo, Alopecurus myosuroides; settings: for Blackgrass plant response rating: 500 g ai/ha
Outline: as §1

Italian ryegrass [2] = experiment: Test C postemergence herbicide test; assay type: in vivo, Lolium multiflorum
Outline: as §1

winter barley = experiment: Test C postemergence herbicide test; assay type: in vivo, Hordeum vulgare; settings: for Barley, Winter plant response rating: 500 g ai/ha, scale 0 to 100
Outline: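 Plants were grown to the 1- to 4-leaf stage (2–18 cm) and then treated postemergence, or grown to the 2-leaf stage for the flooded paddy test. They were held in a greenhouse for 12 to 14 days and then scored by eye against controls, where 0 is no effect and 100 is complete control.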

canarygrass = experiment: Test C postemergence herbicide test; assay type: in vivo, Phalaris minor
Outline: as §1

windgrass = experiment: Test C postemergence herbicide test; assay type: in vivo, Apera spica-venti
Outline: as §1

downy bromegrass = experiment: Test C postemergence herbicide test; assay type: in vivo, Bromus tectorum
Outline: as §1

[3] = Postemergence, 500 g ai/ha, scale 0 to 100
[4] = Postemergence, 250 g ai/ha, scale 0 to 100
[5] = Preemergence, 62 g ai/ha, scale 0 to 100
[6] = Preemergence, 500 g ai/ha, scale 0 (no effect) to 100 (complete control)
[7] = postemergence, 125 g ai/ha, scale 0 to 100
[8] = postemergence, 62 g ai/ha, scale 0 to 100
[9] = Preemergence, 125 g ai/ha, scale 0 to 100
[10] = Preemergence, 250 g ai/ha, scale 0 (no effect) to 100 (complete control)
[11] = Postemergence, 250 g ai/ha, scale 0 to 100, 0 no effect, 100 complete control
[12] = postemergence, 125 g ai/ha, scale 0 to 100 (0 no effect, 100 complete control)
[13] = postemergence, 62 g ai/ha, scale 0 to 100 (0 no effect, 100 complete control)
[14] = Postemergence, 500 g ai/ha, scale 0 to 100, 0 no effect, 100 complete control

For `CCn1nc(C(C)(C)C)cc1C(=O)Nc1cc(C(=O)N(C)C)ccc1F` [Compound 6, N-[5-[(dimethylamino)carbonyl]-2-fluorophenyl]-3-(1,1-dimethylethyl)-1-ethyl-1H-pyrazole-5-carboxamide], the “Plant response rating, Ryegrass, Italian” value (Italian ryegrass [1]; [3]) was 98, the “Plant response rating, Ryegrass, Italian” value (Italian ryegrass [1]; [4]) was 98 and the “Plant response rating, Ryegrass, Italian” value (Italian ryegrass [1]; [5]) was 90. For the same molecule, the “Plant response rating, Ryegrass, Italian” value (Italian ryegrass [1]; Preemergence, 125 g ai/ha, scale 0 (no effect) to 100 (complete control)) was 95, the “Plant response rating, Ryegrass, Italian” value (Italian ryegrass [1]; [6]) was 100 and the “Plant response rating, Ryegrass, Italian” value (Italian ryegrass [1]; [7]) was 95. For the same molecule, the “Plant response rating, Ryegrass, Italian” value (Italian ryegrass [1]; [8]) was 80, the pest or weed control at 500 g/ha (large crabgrass; post-emergence, Postemergence, 500 g ai/ha, 0 to 100 scale, 0 no effect, 100 complete control, read-out: Plant response rating, Crabgrass, Large) was 80% and the pest or weed control at 2000 g/ha (large crabgrass; post-emergence, Postemergence, 2000 g ai/ha, 0 to 100 scale, 0 no effect, 100 complete control, read-out: Plant response rating, Crabgrass, Large) was 90%. It also gave a pest or weed control at 500 g/ha (large crabgrass; pre-emergence, Preemergence, 500 g ai/ha, visual rating, 0 to 100 scale (0 no effect, 100 complete control), read-out: Crabgrass, Large plant response rating) of 100% and a pest or weed control at 2000 g/ha (large crabgrass; pre-emergence, Preemergence, 2000 g ai/ha, 0 to 100 scale, 0 no effect, 100 complete control, read-out: Crabgrass, Large plant response rating) of 100%.

With `CCNC(=O)c1ccnc(NC(=O)c2cc(C(C)(C)C)nn2CC)c1` [Compound 152] the “Plant response rating, Ryegrass, Italian” value (Italian ryegrass [1]; [3]) was 90, the “Plant response rating, Ryegrass, Italian” value (Italian ryegrass [1]; [4]) was 90 and the “Plant response rating, Ryegrass, Italian” value (Italian ryegrass [1]; [5]) was 20. For the same molecule, the “Plant response rating, Ryegrass, Italian” value (Italian ryegrass [1]; [9]) was 50, the “Plant response rating, Ryegrass, Italian” value (Italian ryegrass [1]; [10]) was 80 and the “Plant response rating, Ryegrass, Italian” value (Italian ryegrass [1]; [6]) was 95. For the same molecule, the “Plant response rating, Ryegrass, Italian” value (Italian ryegrass [1]; [7]) was 90.

`CCn1nc(C(C)(C)C)cc1C(=O)Nc1cccc(OC(F)(F)F)c1` [Compound 272] was tested, and the “Foxtail, Green plant response rating” value (green foxtail; [3]) was 60, the “Plant response rating, Foxtail, Green” value (green foxtail; [11]) was 45 and the “Plant response rating, Foxtail, Green” value (green foxtail; [7]) was 40. The “Plant response rating, Foxtail, Green” value (green foxtail; [8]) was 35, the “Oat, Wild plant response rating” value (wild oat; [3]) was 65 and the “Plant response rating, Oat, Wild” value (wild oat; [11]) was 55. For the same molecule, the “Plant response rating, Oat, Wild” value (wild oat; [7]) was 45, the “Plant response rating, Oat, Wild” value (wild oat; [8]) was 40 and the “Chickweed plant response rating” value (chickweed; [3]) was 100. For the same molecule, the “Plant response rating, Chickweed” value (chickweed; [11]) was 100, the “Plant response rating, Chickweed” value (chickweed; [7]) was 100 and the “Plant response rating, Chickweed” value (chickweed; [8]) was 95. For the same molecule, the “Wheat plant response rating” value (wheat; [3]) was 35, the “Plant response rating, Wheat” value (wheat; [11]) was 35 and the “Plant response rating, Wheat” value (wheat; [7]) was 35. For the same molecule, the “Plant response rating, Wheat” value (wheat; [8]) was 30, the “Blackgrass plant response rating” value (blackgrass; Postemergence, scale 0 to 100) was 65 and the “Plant response rating, Blackgrass” value (blackgrass; [11]) was 45. For the same molecule, the “Plant response rating, Blackgrass” value (blackgrass; [7]) was 45, the “Plant response rating, Blackgrass” value (blackgrass; [8]) was 35 and the “Ryegrass, Italian plant response rating” value (Italian ryegrass [2]; [3]) was 60. For the same molecule, the “Plant response rating, Ryegrass, Italian” value (Italian ryegrass [2]; [11]) was 45, the “Plant response rating, Ryegrass, Italian” value (Italian ryegrass [2]; [7]) was 45 and the “Plant response rating, Ryegrass, Italian” value (Italian ryegrass [2]; [8]) was 30. The “Barley, Winter plant response rating” value (winter barley; Postemergence) was 35, the “Plant response rating, Barley, Winter” value (winter barley; [11]) was 35 and the “Plant response rating, Barley, Winter” value (winter barley; [12]) was 35. The “Plant response rating, Barley, Winter” value (winter barley; [13]) was 35, the “Canarygrass plant response rating” value (canarygrass; [3]) was 55 and the “Plant response rating, Canarygrass” value (canarygrass; [11]) was 40. The “Plant response rating, Canarygrass” value (canarygrass; [7]) was 35, the “Plant response rating, Canarygrass” value (canarygrass; [8]) was 35 and the “Windgrass plant response rating” value (windgrass; [3]) was 85. The “Plant response rating, Windgrass” value (windgrass; [7]) was 70, the “Plant response rating, Windgrass” value (windgrass; [8]) was 60 and the “Crabgrass, Large plant response rating” value (large crabgrass; Postemergence, 500 g ai/ha, 0 to 100 scale, 0 no effect, 100 complete control) was 55. The “Plant response rating, Crabgrass, Large” value (large crabgrass; Postemergence, 2000 g ai/ha, 0 to 100 scale, 0 no effect, 100 complete control) was 90, the “Crabgrass, Large plant response rating” value (large crabgrass; Preemergence, 2000 g ai/ha, visual rating, 0 to 100 scale (0 no effect, 100 complete control)) was 100 and the “Crabgrass, Large plant response rating” value (large crabgrass; preemergence, 500 g ai/ha, visual injury, 0 to 100 scale (0 no effect, 100 complete control)) was 85. For the same molecule, the “Bromegrass, Downy plant response rating” value (downy bromegrass; [3]) was 65, the “Plant response rating, Bromegrass, Downy” value (downy bromegrass; [11]) was 60 and the “Plant response rating, Bromegrass, Downy” value (downy bromegrass; [7]) was 55. The “Plant response rating, Bromegrass, Downy” value (downy bromegrass; [8]) was 30.

For `CCc1nn(C(C)(C)CC)nc1C(=O)Nc1cccc(C(=O)N(C)C)c1` [Compound 372], the “Plant response rating, Ryegrass, Italian” value (Italian ryegrass [1]; [5]) was 60, the “Plant response rating, Ryegrass, Italian” value (Italian ryegrass [1]; [9]) was 70 and the “Plant response rating, Ryegrass, Italian” value (Italian ryegrass [1]; [10]) was 95. For the same molecule, the “Plant response rating, Ryegrass, Italian” value (Italian ryegrass [1]; [6]) was 95.

With `Cc1nn(C(C)(C)C)nc1C(=O)Nc1cccc(C(=O)N(C)C)c1` [Compound 391] the “Plant response rating, Foxtail, Green” value (green foxtail; [11]) was 60, the “Plant response rating, Foxtail, Green” value (green foxtail; [14]) was 65 and the “Plant response rating, Foxtail, Green” value (green foxtail; [7]) was 55. The “Plant response rating, Foxtail, Green” value (green foxtail; [8]) was 55, the “Plant response rating, Oat, Wild” value (wild oat; [14]) was 65 and the “Plant response rating, Oat, Wild” value (wild oat; [7]) was 40. For the same molecule, the “Plant response rating, Oat, Wild” value (wild oat; [8]) was 30, the “Plant response rating, Wheat” value (wheat; [14]) was 35 and the “Plant response rating, Wheat” value (wheat; [7]) was 20. The “Plant response rating, Wheat” value (wheat; [8]) was 0, the “Blackgrass plant response rating” value (blackgrass; Postemergence, scale 0 to 100) was 65 and the “Plant response rating, Blackgrass” value (blackgrass; [11]) was 55. The “Plant response rating, Blackgrass” value (blackgrass; [7]) was 45, the “Plant response rating, Blackgrass” value (blackgrass; [8]) was 40 and the “Plant response rating, Ryegrass, Italian” value (Italian ryegrass [2]; [14]) was 65. For the same molecule, the “Plant response rating, Ryegrass, Italian” value (Italian ryegrass [2]; [7]) was 40, the “Plant response rating, Ryegrass, Italian” value (Italian ryegrass [2]; [8]) was 35 and the “Barley, Winter plant response rating” value (winter barley; Postemergence) was 30. The “Plant response rating, Barley, Winter” value (winter barley; [11]) was 30, the “Plant response rating, Barley, Winter” value (winter barley; [12]) was 10 and the “Plant response rating, Barley, Winter” value (winter barley; [13]) was 10. For the same molecule, the “Plant response rating, Canarygrass” value (canarygrass; [11]) was 60, the “Plant response rating, Canarygrass” value (canarygrass; [14]) was 65 and the “Plant response rating, Canarygrass” value (canarygrass; [7]) was 40. For the same molecule, the “Plant response rating, Canarygrass” value (canarygrass; [8]) was 40, the “Plant response rating, Ryegrass, Italian” value (Italian ryegrass [1]; [9]) was 80 and the “Plant response rating, Ryegrass, Italian” value (Italian ryegrass [1]; [10]) was 95. The “Plant response rating, Ryegrass, Italian” value (Italian ryegrass [1]; [6]) was 95, the “Plant response rating, Windgrass” value (windgrass; [14]) was 70 and the “Plant response rating, Windgrass” value (windgrass; [7]) was 65. The “Plant response rating, Windgrass” value (windgrass; [8]) was 60, the “Plant response rating, Bromegrass, Downy” value (downy bromegrass; [11]) was 55 and the “Plant response rating, Bromegrass, Downy” value (downy bromegrass; [14]) was 65. The “Plant response rating, Bromegrass, Downy” value (downy bromegrass; [7]) was 45 and the “Plant response rating, Bromegrass, Downy” value (downy bromegrass; [8]) was 45.
